Data taken from paper PMC10786919, “Design-rules for stapled peptides with in vivo activity and their application to Mdm2/X antagonists” (Nature Communications, 2024).
Converted amounts (≈) assume the structure as drawn. Positions of bridges follow the written chain, without caps; N, C: chain ends. Non-standard residues stand in square brackets, D forms with d. Residues, ends and D or L forms follow the SMILES beside them. Lys(N3) = [N-]=[N+]=NCCCC[C@H](N)C(=O)O; R8 = C=CCCCCCC[C@@](C)(N)C(=O)O; Cba = N[C@@H](CC1CCC1)C(=O)O; S5 = C=CCCC[C@](C)(N)C(=O)O; βAla = NCCC(=O)O; Sar = CNCC(=O)O

Assays:
[1] = Lactate dehydrogenase (LDH) release assay; format: cell-based; conditions: LDH: Cytotoxicity assay: EC50
Outline: (§1)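 LDH release, fluorometric membrane-integrity read-out; HCT116 with stable p53-responsive β-lactamase reporter; 8000 cells/well; 0.5% DMSO final; geometric mean, n≥3 biological replicates.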

EPSA = format: physicochemical
[2] = Solubility assay (kinetic solubility, PBS pH 7); format: physicochemical; conditions: pH 7, aqueous buffer, kinetic from dmso stock, pH 7, PBS; read-out: Solubility
Outline: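 Std: 10 mM stock → 100 µM in ACN/MeOH/DMSO (10:80:10). Sol. [µM] = (sample peak area / std peak area) × std conc.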

[3] = Experimental LogD (partition coefficient); conditions: not stated, Partition Coeff LogD
HCT116 cells = assay: Lactate dehydrogenase (LDH) release assay; format: cell-based
Outline: as §1

in vitro = conditions: Nanoclick permeability assay EC50
Outline: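 Azido-peptide permeability was read as loss of NanoBRET signal (donor 450 nm, acceptor 610 nm) after adding NanoBret618-azide at 10 μM final.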

[4] = tested on: CellSensor p53RE-bla HCT-116 Cell Line; conditions: 72 h
Outline: (§2)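 Compound dilution series (10 points, 3-fold, 10 mM top stock in DMSO) tested on overnight-plated Ca Ski cells in RPMI1640/10% FBS and on blasticidin-selected p53RE-bla HCT-116 cells in McCoy's 5A; read-out was CellTiter-Glo 2.0 luminescence after room-temperature equilibration.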

Ca Ski cell line = conditions: 72 h
Outline: as §2

| Structure (SMILES) | EC50 [1] [µM] | EPSA (EPSA; EPSA) [A^2] | solubility kinetic [2] [µM] | logD [3] | LDH: Cytotoxicity assay: % Effect (HCT116 cells) [%] | EPSA (EPSA) | EPSA (physchem) [A^2] | cell entry EC50 (in vitro) [µM] | EC50 [4] [µM] | EC50 (Ca Ski cell line) [µM] |
| --- | --- | --- | --- | --- | --- | --- | --- | --- | --- | --- |
| CC(=O)N[C@@H](CC(C)C)C(=O)N[C@H](C(=O)N[C@@H](Cc1ccccc1)C(=O)NC(C)(C)C(=O)N[C@@H](CCC(=O)O)C(=O)N[C@@H](Cc1ccc(O)cc1)C(=O)N[C@H](Cc1c[nH]c2ccccc12)C(=O)N[C@@H](CCC(N)=O)C(=O)N[C@@H](CC(C)C)C(=O)N[C@@H](CC1CCC1)C(=O)NC(C)(C)C(=O)N[C@@H](CO)C(=O)N[C@@H](C)C(=O)N[C@@H](C)C(N)=O)[C@@H](C)O [MP-256] | > 50 | 185 | 91.5 (≈ 152 µg/mL) | 2.18 | – | – | – | – | – | – |
| CC(=O)N[C@@H](CCCCN=[N+]=[N-])C(=O)NCC(=O)N[C@@H](CO)C(=O)NCC(=O)N[C@H](C(=O)N[C@@H](CO)C(=O)N[C@@H](Cc1ccccc1)C(=O)N[C@]1(C)CCCCCCC=CCCC[C@@](C)(C(=O)N[C@@H](CCC(=O)O)C(N)=O)NC(=O)[C@H](CC(C)C)NC(=O)[C@H](CC(C)C)NC(=O)[C@H](C)NC(=O)[C@H](Cc2c[nH]c3ccccc23)NC(=O)[C@H](Cc2ccc(O)cc2)NC(=O)[C@H](CCC(=O)O)NC1=O)[C@@H](C)O [MP-010] | > 50 | – | 23 (≈ 44.8 µg/mL) | 2.07 | 19.63 | Poorly Behaved | – | – | – | – |
| CC(=O)N[C@@H](CCCCN=[N+]=[N-])C(=O)N[C@@H](CC(C)C)C(=O)N[C@H](C(=O)N[C@@H](Cc1ccccc1)C(=O)N[C@]1(C)CCCCCCC=CCCC[C@@](C)(C(=O)N[C@@H](CCC(=O)O)C(N)=O)NC(=O)[C@H](CC2CCC2)NC(=O)[C@H](CCC(N)=O)NC(=O)[C@H](C)NC(=O)[C@H](Cc2c[nH]c3ccccc23)NC(=O)[C@H](Cc2ccc(O)cc2)NC(=O)[C@H](CCC(=O)O)NC1=O)[C@@H](C)O [MP-4008] (Ac-[Lys(N3)]LTF[R8]EYWAQ[Cba][S5]E-NH2; staple 5-12) | > 50 | – | 23 (≈ 41.4 µg/mL) | 2.48 | -0.7368 | Poorly Behaved | – | – | – | – |
| CC(=O)N[C@@H](CCCCN=[N+]=[N-])C(=O)NCCC(=O)N[C@@H](CCC(=O)O)C(=O)N[C@H](C(=O)N[C@@H](Cc1ccccc1)C(=O)N[C@]1(C)CCCCCCC=CCCC[C@@](C)(C(=O)N[C@@H](CO)C(=O)N[C@@H](C)C(=O)N[C@@H](C)C(N)=O)NC(=O)[C@H](CC2CCC2)NC(=O)[C@H](CCC(N)=O)NC(=O)[C@H](CCC(=O)O)NC(=O)[C@H](Cc2c[nH]c3ccccc23)NC(=O)[C@H](Cc2ccc(O)cc2)NC(=O)[C@H](CCC(=O)O)NC1=O)[C@@H](C)O [MP-65496] (Ac-[Lys(N3)][βAla]ETF[R8]EYWEQ[Cba][S5]SAA-NH2; staple 6-13) | > 50.6 | – | 83.7 (≈ 171 µg/mL) | 1.98 | 2.338 | – | 324 | 0.42 | 1.53 | > 49.8 |
| CC(=O)N[C@H](C)C(=O)N[C@H](C)C(=O)N[C@H](C)C(=O)N[C@H](C)C(=O)N[C@H](C)C(=O)N[C@H](C)C(=O)N[C@H](C)C(=O)N[C@H](C)C(=O)N[C@@H](CC(C)C)C(=O)N[C@H](C(=O)N[C@@H](Cc1ccccc1)C(=O)N[C@]1(C)CCCCCCC=CCCC[C@@](C)(C(=O)N[C@@H](CO)C(=O)N[C@@H](C)C(=O)N[C@@H](C)C(N)=O)NC(=O)[C@H](CC2CCC2)NC(=O)[C@H](CCC(N)=O)NC(=O)[C@H](C)NC(=O)[C@H](Cc2c[nH]c3ccccc23)NC(=O)[C@H](Cc2ccc(O)cc2)NC(=O)[C@H](CCC(=O)O)NC1=O)[C@@H](C)O [MP-414] (Ac-[dA][dA][dA][dA][dA][dA][dA][dA]LTF[R8]EYWAQ[Cba][S5]SAA-NH2; staple 12-19) | > 50.7 | 210 | 35 (≈ 81 µg/mL) | 2.65 | -4.321 | – | – | – | – | – |
| CC(=O)N[C@@H](CCCNC(=N)N)C(=O)NCCCCCC(=O)N[C@@H](CC(C)C)C(=O)N[C@H](C(=O)N[C@@H](Cc1ccccc1)C(=O)N[C@]1(C)CCCCCCC=CCCC[C@@](C)(C(=O)N[C@@H](CO)C(=O)N[C@@H](C)C(=O)N[C@@H](C)C(N)=O)NC(=O)[C@H](CC2CCC2)NC(=O)[C@H](CCC(N)=O)NC(=O)[C@H](C)NC(=O)[C@H](Cc2c[nH]c3ccccc23)NC(=O)[C@H](Cc2ccc(O)cc2)NC(=O)[C@H](CCC(=O)O)NC1=O)[C@@H](C)O [MP-4001] | > 50 | 207 | 4 (≈ 8.06 µg/mL) | 2.64 | -1.283 | – | – | – | – | – |
| CC(=O)N[C@@H](CCCCN=[N+]=[N-])C(=O)NCCC(=O)N[C@@H](CC(N)=O)C(=O)N[C@H](C(=O)N[C@@H](Cc1ccccc1)C(=O)N[C@]1(C)CCCCCCC=CCCC[C@@](C)(C(=O)N[C@@H](CO)C(=O)N[C@@H](C)C(=O)N[C@@H](C)C(N)=O)NC(=O)[C@H](CC2CCC2)NC(=O)[C@H](CCC(N)=O)NC(=O)[C@H](CC(N)=O)NC(=O)[C@H](Cc2c[nH]c3ccccc23)NC(=O)[C@H](Cc2ccc(O)cc2)NC(=O)[C@H](CC(N)=O)NC1=O)[C@@H](C)O [MP-497] | > 50.6 | – | 5 (≈ 10 µg/mL) | 2.49 | 3.16 | – | 202 | 0.271 | 7.81 | > 49.8 |
| CC(=O)N[C@@H](CCCNC(=N)N)C(=O)N[C@@H](CCCNC(=N)N)C(=O)NCCCCCC(=O)N[C@@H](CC(C)C)C(=O)N[C@H](C(=O)N[C@@H](Cc1ccccc1)C(=O)N[C@]1(C)CCCCCCC=CCCC[C@@](C)(C(=O)N[C@@H](CO)C(=O)N[C@@H](C)C(=O)N[C@@H](C)C(N)=O)NC(=O)[C@H](CC2CCC2)NC(=O)[C@H](CCC(N)=O)NC(=O)[C@H](C)NC(=O)[C@H](Cc2c[nH]c3ccccc23)NC(=O)[C@H](Cc2ccc(O)cc2)NC(=O)[C@H](CCC(=O)O)NC1=O)[C@@H](C)O [MP-003] | 31 | 207 | 6 (≈ 13 µg/mL) | 2.51 | 46.5 | – | – | – | – | – |
| CC(=O)N[C@@H](CC(C)C)C(=O)N[C@H](C(=O)N[C@@H](Cc1ccccc1)C(=O)NC(C)(C)C(=O)N[C@@H](CCC(=O)O)C(=O)N[C@@H](Cc1ccc(O)cc1)C(=O)N[C@H](Cc1c[nH]c2ccccc12)C(=O)N[C@@H](C)C(=O)N[C@@H](CCC(N)=O)C(=O)N[C@@H](CC1CCC1)C(=O)NC(C)(C)C(=O)N[C@@H](CO)C(=O)N[C@@H](C)C(=O)N[C@@H](C)C(N)=O)[C@@H](C)O [MP-254] | > 50 | 188 | 92.5 (≈ 150 µg/mL) | 2.08 | – | – | – | – | – | – |
| CC(=O)N(C)CC(=O)N(C)CC(=O)N(C)CC(=O)N(C)CC(=O)N(C)CC(=O)N(C)CC(=O)N(C)CC(=O)N(C)CC(=O)N[C@@H](CC(C)C)C(=O)N[C@H](C(=O)N[C@@H](Cc1ccccc1)C(=O)N[C@]1(C)CCCCCCC=CCCC[C@@](C)(C(=O)N[C@@H](CO)C(=O)N[C@@H](C)C(=O)N[C@@H](C)C(N)=O)NC(=O)[C@H](CC2CCC2)NC(=O)[C@H](CCC(N)=O)NC(=O)[C@H](C)NC(=O)[C@H](Cc2c[nH]c3ccccc23)NC(=O)[C@H](Cc2ccc(O)cc2)NC(=O)[C@H](CCC(=O)O)NC1=O)[C@@H](C)O [MP-623] (Ac-[Sar][Sar][Sar][Sar][Sar][Sar][Sar][Sar]LTF[R8]EYWAQ[Cba][S5]SAA-NH2; staple 12-19) | > 50.7 | 200 | 150 (≈ 347 µg/mL) | 2.41 | 3.314 | – | – | – | – | – |
| CC(=O)N[C@@H](CCCCN=[N+]=[N-])C(=O)NCCC(=O)N[C@@H](CCC(N)=O)C(=O)N[C@H](C(=O)N[C@@H](Cc1ccccc1)C(=O)N[C@]1(C)CCCCCCC=CCCC[C@@](C)(C(=O)N[C@@H](CO)C(=O)N[C@@H](C)C(=O)N[C@@H](C)C(N)=O)NC(=O)[C@H](CC2CCC2)NC(=O)[C@H](CCC(N)=O)NC(=O)[C@H](CCC(N)=O)NC(=O)[C@H](Cc2c[nH]c3ccccc23)NC(=O)[C@H](Cc2ccc(O)cc2)NC(=O)[C@H](CCC(N)=O)NC1=O)[C@@H](C)O [MP-5498] (Ac-[Lys(N3)][βAla]QTF[R8]QYWQQ[Cba][S5]SAA-NH2; staple 6-13) | > 50.6 | – | 19.7 (≈ 40.2 µg/mL) | 2.6 | 8.092 | – | 198 | 0.0494 | 6.24 | 38.3 |
| CC(=O)N[C@@H](CCCCN=[N+]=[N-])C(=O)NCCC(=O)N[C@H](C(=O)N[C@H](C(=O)N[C@@H](Cc1ccccc1)C(=O)N[C@]1(C)CCCCCCC=CCCC[C@@](C)(C(=O)N[C@@H](CO)C(=O)N[C@@H](C)C(=O)N[C@@H](C)C(N)=O)NC(=O)[C@H](CC2CCC2)NC(=O)[C@H](CCC(N)=O)NC(=O)[C@H]([C@@H](C)O)NC(=O)[C@H](Cc2c[nH]c3ccccc23)NC(=O)[C@H](Cc2ccc(O)cc2)NC(=O)[C@H]([C@@H](C)O)NC1=O)[C@@H](C)O)[C@@H](C)O [MP-5494] (Ac-[Lys(N3)][βAla]TTF[R8]TYWTQ[Cba][S5]SAA-NH2; staple 6-13) | > 50.6 | – | – | 2.94 | 2.763 | – | 199 | 0.457 | 0.679 | > 49.8 |
